Results: ChEMBL document CHEMBL1147573, “Chemiluminescence quenching of pteroic acid-N-sulfonyl-acridinium-9-carboxamide conjugates by folate binding protein” (Bioorg Med Chem Lett, 2004)

Assay: Binding affinity towards folate binding protein

IC50 [nM]	SMILES
8.43	Cc1ccc(S(=O)(=O)N(CCCC(=O)NCCCCCCNC(=O)c2ccc(N(Cc3cnc4nc(N)nc(O)c4n3)C(=O)C(F)(F)F)cc2)C(=O)c2c3ccccc3[n+](CCCS(=O)(=O)[O-])c3ccccc23)cc1
8.14	Cc1ccc(S(=O)(=O)N(CCCS(=O)(=O)[O-])C(=O)c2c3ccccc3[n+](CCCCCCCCCC(=O)NCCCCCCNC(=O)c3ccc(N(Cc4cnc5nc(N)nc(O)c5n4)C(=O)C(F)(F)F)cc3)c3ccccc23)cc1
